The source of these data is patent publication US20050142634A1, “Novel modulator of non-genomic activity of nuclear receptors (mnar) and uses thereof” (Wyeth, priority 2001, published 2005).

The subject of data set [1] is ERα. Briefly: MNAR effect on ER-mediated transcription, 2xERE-tk-luciferase reporter in HepG2 cells. Format: cell-based. The settings on record: for effect of kinase inhibitor on MNAR stimulation of ER activity / effect of Src inhibitor on MNAR stimulation of E2 induced ERα activity / MNAR stimulation of ER activity with ligand: HepG2, ERα and MNAR; for effect of kinase inhibitor on MNAR stimulation of ER activity: 10 nM E2 plus 1 μM inhibitor; for effect of Src inhibitor on MNAR stimulation of E2 induced ERα activity: treated for 24 hr with 17β-estradiol and inhibitor; for MNAR stimulation of ER activity with ligand: ligand at 10 nM. As for the experimental part: Transient Transfection Analysis: HepG2 and COS-7 cells were routinely maintained in DMEM supplemented with 10% FBS. Either 50,000 cells per well of HepG2 or 30,000 per well of COS-7 were seeded in 96 well plates in DMEM without phenol red supplemented with 10% charcoal stripped serum. 100 ng of 2×ERE-tk-Luc reporter, 10 ng of pCMV-O-gal internal control, either 1 ng of pcDNA3.1 ERα or 5 ng of pcDNA3.1 ERβ expression vector with or without increasing amount of pcDNA3.1 MNAR or pcDNA3.1 SRC3 expression plasmids were transfected using 0.5 ul of lipofectamine 2000 (Life Technologies, Rockville, Md.) according to protocol. Cells were stimulated either with 10^−8M 17-b-estradiol, tamoxifen, or ICI for 24 hr before being processed for luciferase and β-Galactosidase activity.
A—HepG2 cells were transfected with expression plasmids for ERα, MNAR and/or SRC3. […] B—HepG2 cells were transfected with expression vectors for ERαand MNAR. […] (SEQ ID NO: 11) from Sequitur, Inc. (Natick, Mass.) or reverse control (C) oligomers complexed with 1 μg/ml of Lipofectamine 2000 in white media.
To evaluate if MNAR overexpression affects transcriptional activity of ER, HepG2 cells were transiently cotransfected with plasmids for expression of ERα and MNAR.

Data set [2] has as its system Erk 1 and 2. Briefly: E2 induced Erk kinase 1 and 2 activation in MCF7 cells (Western blotting). Format: cell-based, human. As to conditions: for effect on E2 induced Erk 1 and 2 activation: MCF7 cells overexpressing MNAR or treated with 100 nM antisense, 10 nM E2 5 minutes; for level of total Erk 1 and 2: Erk1/2 antibodies. The source says: (§1) It has been previously reported that activation of Src by estradiol triggers Ras/Erks kinase pathway. We expected that MNAR induced Src activation may lead to activation of Erk kinases 1 and 2. […] MNAR antisense oligonucleotide (SEQ ID NO:11) was developed at Sequitur Inc. (Natick, Mass.).

Data set [3] deals with pS2. Nature of the data set: ER-mediated gene expression in MCF-7 cells (TaqMan). Type of data set: cell-based, human. As to conditions: 100 nM antisense. On the procedure:
(§2) A—HepG2 cells were transfected with expression plasmids for ERα, MNAR and/or SRC3. […] B—HepG2 cells were transfected with expression vectors for ERαand MNAR. […] C—MCF-7 cells were transfected with 100 nM antisense (AS) […] (SEQ ID NO: 11) from Sequitur, Inc. (Natick, Mass.) or reverse control (C) oligomers complexed with 1 μg/ml of Lipofectamine 2000 in white media. […] MNAR antiserum was generated against […] peptide encoding amino acids 509-520 ([…]) (SEQ ID NO: 31) of the MNAR.
(§3) We next used an antisense approach to assess MNAR's role in estrogen regulation of gene transcription. […] MCF-7 cells were transfected with 100 nM antisense or reverse control oligomers. […] TaqMan analysis was performed using a primer/probe set designed to target MNAR, pS2 and Cathepsin D—two genes known to be regulated by estrogens in MCF-7 cells. FIG. 9C presents the levels of MNAR, pS2 and Cathepsin D mRNA expression, normalized to GAPDH mRNA.

For data set [4], the system named is Cathepsin D. The data set is described as above. Type of data set: cell-based, human. The settings on record: 100 nM antisense. As for the experimental part: as §2, §3
The subject of data set [5] is MNAR. Briefly: MNAR expression in MCF-7 cells (TaqMan, Western blotting). Type of data set: cell-based, human. As for the experimental part:
as §2, §1, §3

In data set [6] the test system is cSrc. As to conditions: ERα with MNAR and cSrc, 1 μM E2, compared to unliganded ERα. An excerpt: ER-MNAR-cSrc Interaction Analysis. […] Formed complexes were isolate by pulled-down with anti-cSrc or anti-Lck antibodies and protein A agarose, boiled in 2×SDS buffer and resolved on an SDS-PAGE gel. Gel was dried and subjected to autoradiography.
To address this question, we have used in vitro transcribed/translated estrogen receptors ERα, ERβ and MNAR. […] Formed complexes were pulled-down with anti-cSrc or anti-Lck antibodies and protein A sepharose and then resolved on an SDS gel.

Data set [7] has as its system cSrc. Briefly: Kinase reaction on immunoprecipitates from MCF-7 cells ([32P]γATP). As to conditions: material coprecipitated with anti-Src and anti-ER antibodies from MCF-7 cells, E2 10 nM 5 minutes. Type of data set: cell-based, human.
Method: FLAG-MNAR (panel A), cSrc (panel B), or ERα (panels C, D and E) were immunoprecipitated from the cell extracts using corresponding antibodies. Immunoprecipitates were incubated with [32P]γATP for 30 minutes at 30° C. (panels A-C), or with [32P]-γATP and enolase (panel D). Kinase reaction was stopped by boiling in 2×SDS buffer. Phosphorylated material was loaded on SDS gel, which was then dried and subjected to autoradiography.
We evaluated whether MNAR and ER interacted and activated Src kinase in MCF-7 cells. […] Flag-MNAR (FIG. 10, panel A), ERα (FIG. 10, panel C and D), and csrc (FIG. 10, panel B) were immunoprecipitated from the cell extracts using their corresponding antibodies. […] Immunoprecipitates were incubated with [32P]γATP at 30° C. for 30 minutes. Reaction was stopped by boiling in 2×SDS buffer and resolved on a SDS PMG.
Data set [8] has as its system ER. Briefly: MNAR structural-functional analysis, ER-stimulated transcription in HepG2 cells. Type of data set: cell-based. As to conditions: MNAR deletion mutants transfected into HepG2 cells. On the procedure:
To delineate the regions of MNAR that are responsible for interaction with estrogen receptor and c-Src tyrosine kinase, we performed functional evaluation of MNAR deletion mutants (FIG. 12). A series of C-terminal truncations of MNAR was generated using specially designed oligonucleotides, by amplifying appropriate fragments and cloning them into appropriate expression vectors. These mutants were tested for their abilities to enhance ER-stimulated transcription when transfected into HepG2 cells.
At the C-terminus, MNAR contains a region rich in both proline and glutamic acid. To delineate the regions on MNAR responsible for interaction with estrogen receptors and c-src tyrosine kinase, a functional evaluation of MNAR deletion mutants was performed (FIG. 12). A series of C-terminal truncations of MNAR was generated using specially designed oligonucleotides, by amplifying appropriate fragments and cloning them into appropriate expression vectors. These mutants were tested for their abilities to enhance ER-stimulated transcription when transfected into HepG2 cells.

The test system of data set [9] is ERα.
Method: MNAR-Nuclear receptors interaction analysis was performed. […] Formed complexes were isolated using anti-FLAG sepharose beads, boiled in 2×SDS buffer and loaded on SDS gel.
With full-length flag-MNAR, we further evaluated whether MNAR interaction with estrogen receptors is affected by ER ligands. […] Formed complexes were isolated using anti-FLAG sepharose beads.
In data set [10] the test system is cSrc. Nature of the data set: Analysis of cSrc enzymatic activity with acidified enolase as substrate. Format: biochemical. As to conditions: acid denatured enolase as substrate. As for the experimental part:
Analysis of cSrc Enzymatic Activity. […] Before reaction proteins were incubated for 1 hr at 4° C. Phosporylation reaction was started by addition of [32P]-γATP and continued at 30° C. for 10 min. Reaction was stopped by addition of 2×SDS buffer. Phosphorylated proteins were separated by SDS-PAGE and the dried gel was subjected to autoradiography.

Regarding `COc1cccc(-c2cc(=O)c3ccccc3o2)c1N` [PD98059], in data set [1], the “effect of kinase inhibitor on MNAR stimulation of ER activity” value was “abrogate MNAR stimulation of ER activity”.
On to `CC(C)(C)n1nc(-c2ccc(Cl)cc2)c2c(N)ncnc21` [PP2], for which, in [1], the “effect of kinase inhibitor on MNAR stimulation of ER activity” value is “abrogate MNAR stimulation of ER activity” and the “effect of Src inhibitor on MNAR stimulation of E2 induced ERα activity” value is on record as “inhibited MNAR stimulation”.
Turning to “MNAR antisense oligonucleotides: antisense (AS) CATGGAGATGTCCCGGAACAGTGCA (SEQ ID NO: 11) from Sequitur, Inc., targets MNAR (listed as DNA, chemistry not given here; listed as Homo sapiens)”, in [2], the “effect on E2 induced Erk 1 and 2 activation” value is “attenuated”. In addition, the “level of total Erk 1 and 2” value in data set [2] (MCF7 cells) is reported as “Neither treatment with MNAR antisense oligonucleotides nor short treatment with E2 affected”. Further, in data set [3], the “basal level of pS2 expression” value is listed as “did not significantly affect”. Further, in [3] (10 nM E2), the “E2-stimulated pS2 expression” value was “dramatic reduction”. The “basal level of Cathepsin D expression” value in data set [4] is given as “did not significantly affect”. Also, in data set [4] (10 nM E2), the “E2-stimulated Cathepsin D expression” value was “dramatic reduction”. The MNAR level entry in data set [5] (MCF7 cells, 100 nM antisense, Western blotting with MNAR antibodies) is listed as “attenuated”. Besides, in data set [5] (MCF-7 cells, 100 nM antisense, TaqMan and Western Blotting), the MNAR expression entry was “significantly inhibited”.
For the compound `C[C@]12CC[C@@H]3c4ccc(O)cc4CC[C@H]3[C@@H]1CC[C@@H]2O` [E2, 17β-estradiol, reference compound], in [2] (MCF7 cells, 10 nM E2 for 5 minutes), the “Erk 1 and 2 phosphorylation” value is “Strong E2 induced stimulation”. Also, the “level of total Erk 1 and 2” value in [2] (MCF7 cells) is “Neither treatment with MNAR antisense oligonucleotides nor short treatment with E2 affected”. For the same compound, the Src-ER-MNAR complex formation entry in data set [6] is “significant stimulation”. In addition, in data set [7], the “phosphorylation of endogenous protein of approximately 34 kDa” value was “stimulated”. Moreover, the “MNAR mRNA expression” value in [5] (MCF-7 cells, 10 nM E2 24 hours, normalized to GAPDH mRNA) is “substantially stimulated”.
In the case of “mutant 4: MNAR mutant containing aa 1-189”, the “ability to enhance ER-stimulated transcription” value in data set [8] is “still able to augment ER transcriptional activity”.
The same measure, in the same setting: then “mutant 2: MNAR mutant containing aa 1-469”, with “still able to augment ER transcriptional activity”.
For the compound `C[C@]12CC[C@@H]3c4ccc(O)cc4C[C@@H](CCCCCCCCC[S+]([O-])CCCC(F)(F)C(F)(F)F)[C@H]3[C@@H]1CC[C@@H]2O` (stereo partly drawn) [ICI 182,780], in data set [1], the “MNAR stimulation of ER activity with ligand” value was “do not support MNAR stimulation of ER activity”.
Turning to `CC/C(=C(\c1ccc(O)cc1)c1ccc(OCCN(C)C)cc1)c1ccccc1` [4(OH) tamoxifen], the “ERα interaction with MNAR” value in data set [9] was “inhibited”. The “MNAR stimulation of ER activity with ligand” value in data set [1] is “do not support MNAR stimulation of ER activity”.
As for `O=c1c(-c2ccc(O)cc2)coc2cc(O)cc(O)c12` [genesteine, genistein], the “effect of Src inhibitor on MNAR stimulation of E2 induced ERα activity” value in data set [1] is listed as “inhibited MNAR stimulation”.
Regarding “MNAR: novel ER interacting protein, 1130 amino acids, cloned from MCF-7 cells”, the cSrc enzymatic activity entry in [10] is listed as “strongly stimulates”. Further, in [2], the “effect on E2 induced Erk 1 and 2 activation” value is “significantly enhanced”. Moreover, the “ERα transcriptional activity on overexpression” value in data set [1] (HepG2 cells transfected with expression plasmid, 2xERE-tk-reporter) was “stimulation of ERα transcriptional activity”. Also, the “phosphorylation of endogenous protein of approximately 34 kDa” value in data set [7] is on record as “dramatically augmented”.
Take “mutant 3: MNAR mutant containing aa 1-278”: the “ability to enhance ER-stimulated transcription” value in data set [8] was “still able to augment ER transcriptional activity”.
